# Experimental data reported in ChEMBL document CHEMBL1201862, “PubChem BioAssay data set” (2004).
#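 Cells were grown in 96-well plates and exposed to each compound for 48 hours at five concentrations; endpoints were interpolated linearly between bracketing concentrations, or set to the highest concentration if not reached. GI50 marks 50% less growth.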 Activity calls are given as the source filed them. Rule as the data show it: active = GI50 up to about 1.1 µM and inactive = higher.
# Tests used:
# Assay in all cases: growth of human tumour cells (NCI), 48 h
# CCRF-CEM = test system: CCRF-CEM
# COLO 205 = test system: COLO 205
# HCT-116 = test system: HCT-116
# HCT-15 = test system: HCT-15
# HT-29 = test system: HT-29
# IGROV-1 = test system: IGROV-1
# LOX IMVI = test system: LOX IMVI
# M14 = test system: M14
# MOLT-4 = test system: MOLT-4
# NCI-H226 = test system: NCI-H226
# OVCAR-3 = test system: OVCAR-3
# SK-MEL-28 = test system: SK-MEL-28
# SK-MEL-2 = test system: SK-MEL-2
# SK-OV-3 = test system: SK-OV-3
# SNB-19 = test system: SNB-19
# SNB-75 = test system: SNB-75
# UACC-257 = test system: UACC-257
# PC-3 = test system: PC-3
Compound,GI50 (CCRF-CEM),GI50 (COLO 205),GI50 (HCT-116),GI50 (HCT-15) [µM],GI50 (HT-29),GI50 (IGROV-1),GI50 (LOX IMVI),GI50 (M14),GI50 (MOLT-4),GI50 (NCI-H226),GI50 (OVCAR-3),GI50 (SK-MEL-28),GI50 (SK-MEL-2),GI50 (SK-OV-3),GI50 (SNB-19),GI50 (SNB-75),GI50 (UACC-257),GI50 (PC-3)
O=C1NC(=O)C2C(=O)NC(=O)C1C2c1c(Cl)cccc1Cl (centres undefined),> 46.7 µM (inactive),> 41.8 µM (inactive),> 42.6 µM (inactive),> 100,> 92.5 µM (inactive),> 100 µM (inactive),> 43 µM (inactive),> 100 µM (inactive),> 100 µM (inactive),> 100 µM (inactive),> 100 µM (inactive),> 100 µM (inactive),> 100 µM (inactive),> 100 µM (inactive),> 100 µM (inactive),> 63.5 µM (inactive),> 67.9 µM (inactive),
CCC(=O)C(C)C1=Nc2nnc(CCCCCCCc3nnc4n3C(=O)C(C(C)C(=O)CC)=N4)n2C1=O (centres undefined),> 100 µM (inactive),> 100 µM (inactive),> 100 µM (inactive),> 100,> 100 µM (inactive),> 100 µM (inactive),> 100 µM (inactive),> 100 µM (inactive),> 100 µM (inactive),> 100 µM (inactive),> 100 µM (inactive),> 100 µM (inactive),,> 100 µM (inactive),> 100 µM (inactive),> 100 µM (inactive),> 100 µM (inactive),
COC1(OC)CC2C(=O)N(Cc3ccccc3)C1C(S(=O)(=O)c1ccccc1)C2S(=O)(=O)c1ccccc1 (centres undefined),2.91 µM (inactive),4.53 µM (inactive),16.4 µM (inactive),3.62,11.6 µM (inactive),17.2 µM (inactive),10.2 µM (inactive),14.8 µM (inactive),11.5 µM (inactive),19.7 µM (inactive),10.9 µM (inactive),13.7 µM (inactive),,30 µM (inactive),> 100 µM (inactive),14.2 µM (inactive),7.38 µM (inactive),
NC1=C(O)c2cccc3cccc(c23)C1=O,> 100 µM (inactive),> 100 µM (inactive),> 100 µM (inactive),> 100,> 100 µM (inactive),> 100 µM (inactive),> 100 µM (inactive),> 100 µM (inactive),> 100 µM (inactive),35.9 µM (inactive),> 100 µM (inactive),> 100 µM (inactive),> 100 µM (inactive),> 100 µM (inactive),> 100 µM (inactive),> 100 µM (inactive),> 100 µM (inactive),
CC(=O)NNc1nc(C)c(C(=O)NNC(=O)C(=O)Nc2ccc(Cl)cc2Cl)s1,20.6 µM (inactive),35.9 µM (inactive),47.2 µM (inactive),38.5,48.5 µM (inactive),63.5 µM (inactive),33.7 µM (inactive),42.5 µM (inactive),20.1 µM (inactive),34.2 µM (inactive),19.6 µM (inactive),39.9 µM (inactive),44.1 µM (inactive),31.9 µM (inactive),42.6 µM (inactive),,31 µM (inactive),
Cc1cccc(N2C(=O)C(=O)C(c3nc4ccccc4s3)C(=O)C2=O)c1C,35.7 µM (inactive),> 100 µM (inactive),> 100 µM (inactive),> 100,> 100 µM (inactive),> 100 µM (inactive),> 100 µM (inactive),> 100 µM (inactive),> 100 µM (inactive),> 100 µM (inactive),> 100 µM (inactive),> 100 µM (inactive),> 100 µM (inactive),> 100 µM (inactive),> 100 µM (inactive),> 100 µM (inactive),> 100 µM (inactive),
CC(=O)/C(=N\O)C(=O)Nc1ccc(Cl)cc1Cl,19.1 µM (inactive),> 100 µM (inactive),> 100 µM (inactive),> 100,> 100 µM (inactive),> 100 µM (inactive),> 100 µM (inactive),> 100 µM (inactive),> 100 µM (inactive),> 100 µM (inactive),> 100 µM (inactive),> 100 µM (inactive),> 100 µM (inactive),> 100 µM (inactive),> 100 µM (inactive),> 100 µM (inactive),> 100 µM (inactive),
CC1(C)CC(c2c[nH]c3ccccc23)=CC2=Nc3ccccc3C21O (centres undefined),> 100 µM (inactive),> 100 µM (inactive),41.8 µM (inactive),> 100,59.4 µM (inactive),> 100 µM (inactive),> 100 µM (inactive),> 100 µM (inactive),> 100 µM (inactive),15.2 µM (inactive),33.3 µM (inactive),16.4 µM (inactive),> 100 µM (inactive),> 100 µM (inactive),65.2 µM (inactive),5.94 µM (inactive),> 100 µM (inactive),
O=C(Nc1ccccc1)Oc1ccccc1C1CCCCC1,19.5 µM (inactive),15.8 µM (inactive),21.9 µM (inactive),16.6,20.4 µM (inactive),24.8 µM (inactive),13.8 µM (inactive),23.6 µM (inactive),14.9 µM (inactive),13.2 µM (inactive),12.7 µM (inactive),29.6 µM (inactive),,44.5 µM (inactive),63.1 µM (inactive),6.38 µM (inactive),16.9 µM (inactive),
Cc1c(C(=O)C/C(=N/NC(=O)c2ccccc2O)C(=O)Nc2ccccc2C(C)C)[n+]([O-])c2ccccc2[n+]1[O-],1.47 µM (inactive),31.7 µM (inactive),27.7 µM (inactive),30.3,43.6 µM (inactive),28.3 µM (inactive),32.1 µM (inactive),31 µM (inactive),3.2 µM (inactive),> 100 µM (inactive),25.8 µM (inactive),69.7 µM (inactive),0.0522 µM (active),> 100 µM (inactive),> 100 µM (inactive),> 100 µM (inactive),28.1 µM (inactive),
CCCCCCCCCCC(=O)CCCCCCC(=O)O,19.5 µM (inactive),15.4 µM (inactive),13.8 µM (inactive),13.5,18.5 µM (inactive),19.2 µM (inactive),15.7 µM (inactive),20.5 µM (inactive),15.1 µM (inactive),32.8 µM (inactive),18.2 µM (inactive),40 µM (inactive),25.8 µM (inactive),53.8 µM (inactive),42.1 µM (inactive),29.6 µM (inactive),82.6 µM (inactive),
C[C@H](NS(=O)(=O)c1ccc(NC(=O)c2ccccc2)cc1)C(=O)O,> 100 µM (inactive),> 100 µM (inactive),,> 100,> 100 µM (inactive),> 100 µM (inactive),> 100 µM (inactive),> 100 µM (inactive),> 100 µM (inactive),,> 100 µM (inactive),> 100 µM (inactive),> 100 µM (inactive),> 100 µM (inactive),> 100 µM (inactive),> 100 µM (inactive),> 100 µM (inactive),
CN(C)CC1CCCC/C1=N\OC(=O)c1ccccc1 (centres undefined),> 100 µM (inactive),> 100 µM (inactive),> 100 µM (inactive),> 100,> 100 µM (inactive),> 100 µM (inactive),> 100 µM (inactive),> 100 µM (inactive),> 100 µM (inactive),> 100 µM (inactive),> 100 µM (inactive),> 100 µM (inactive),> 100 µM (inactive),> 100 µM (inactive),,> 100 µM (inactive),> 100 µM (inactive),
COc1nc2c(c(=O)[nH]1)N=C(c1ccccc1)CC(c1ccccc1)N2 (centres undefined),36.4 µM (inactive),> 100 µM (inactive),33.8 µM (inactive),,44.7 µM (inactive),61.4 µM (inactive),44.8 µM (inactive),34.3 µM (inactive),31.3 µM (inactive),72.6 µM (inactive),> 100 µM (inactive),72.9 µM (inactive),29.6 µM (inactive),58.5 µM (inactive),> 100 µM (inactive),15.3 µM (inactive),> 100 µM (inactive),57.9 µM (inactive)
N#Cc1ccc(Oc2cccc(Oc3ccccc3)c2)cc1C#N,23.3 µM (inactive),> 10 µM (inactive),44.3 µM (inactive),> 10,> 10 µM (inactive),> 10 µM (inactive),> 10 µM (inactive),> 10 µM (inactive),30.8 µM (inactive),> 10 µM (inactive),75.2 µM (inactive),61.7 µM (inactive),64 µM (inactive),> 10 µM (inactive),28.5 µM (inactive),1.35 µM (inactive),> 10 µM (inactive),
c1ccc2c(CNCCCCCCCCCCCCNCc3cccc4ccccc34)cccc2c1,1.26 µM (inactive),> 100 µM (inactive),1.61 µM (inactive),1.66,1.64 µM (inactive),1.84 µM (inactive),1.22 µM (inactive),1.85 µM (inactive),1.22 µM (inactive),2.39 µM (inactive),1.85 µM (inactive),1.95 µM (inactive),1.59 µM (inactive),13.3 µM (inactive),,1.79 µM (inactive),1.78 µM (inactive),
COc1cc(CO)cc2c1[nH]c1ccccc12 [KOENOLINE],> 25 µM (inactive),> 25 µM (inactive),> 25 µM (inactive),> 25,> 25 µM (inactive),> 25 µM (inactive),> 25 µM (inactive),> 25 µM (inactive),> 25 µM (inactive),1.73 µM (inactive),> 25 µM (inactive),> 25 µM (inactive),> 25 µM (inactive),> 25 µM (inactive),> 25 µM (inactive),,,
